Laboratory results published in PubChem BioAssay AID463206 (Broad Institute, 2010).
Activity calls are given as the source filed them.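 How the source made its calls: active means caspase luminescence falls with dose and the half-maximal concentration AC50 from the fitted curve is at or below a set limit; inconclusive means flat fit at 30 to 70% signal loss, or invalid fit; inactive means AC50 above the limit, or signal rises instead.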

system: INS-1E cytokine-induced caspase-3/7, Caspase-Glo luminescence, 48 h; experiment: inhibitors of cytokine-induced caspase-3/7 activity, dose response, orthogonal assay for beta-cell apoptosis protection project, INS-1E rat cells, luminescence (AID 463206)

Row | Structure (SMILES) | AC50
1 | C=CC[n+]1c(/C=C2\C=Cc3cc(C)ccc3N2CC)ccc2ccccc21 | > 26 µM (inactive)
2 | O=C(/C(=C/c1ccc(Cl)cc1)c1nc2ccccc2[nH]1)c1cccs1 | > 26 µM (inactive)
3 | CCOC(=O)c1c(NC(=O)C[n+]2ccc(Cc3ccccc3)cc2)sc(C)c1C | > 26 µM (inactive)
4 | Cc1occc1C(=O)N/N=C/c1c(O)ccc2ccccc12 | > 26 µM (inactive)
5 | Cc1nc2ccccc2n1Cc1ccc(Br)cc1 | > 26 µM (inactive)
6 | CCN(CC)S(=O)(=O)c1cccc(NC(=O)CNc2cccc(S(=O)(=O)N3CCCC3)c2)c1 | > 26 µM (inactive)
7 | Cc1cc(N2CCN(c3nc4ccccc4s3)CC2)n2ncnc2n1 | > 26 µM (inactive)
8 | CCN(CC)c1ccc2nc3ccccc3[n+](CC)c2c1 | > 26 µM (inactive)
9 | Cc1ccc(NC(=O)c2ccccc2NS(=O)(=O)c2ccc(Cl)s2)cc1 | > 26 µM (inactive)
10 | CCc1ccc(S(=O)(=O)Nc2ccc(O)c3ccccc23)cc1 | > 26 µM (inactive)
11 | CCCCCCCCCCOC(=O)Cn1c(COc2ccccc2OC)[n+](C)c2ccccc21 | > 26 µM (inactive)
12 | COc1ccc(CCNc2ncnc3c2oc2ccccc23)cc1OC | > 26 µM (inactive)
13 | O=[N+]([O-])c1ccc(O)c(/C=N/NC(=S)Nc2ccc(Cl)cc2Cl)c1 | > 26 µM (inactive)
14 | Cc1cccc(CSC(Nc2ccc(F)cc2)=C(C#N)C#N)c1 | > 26 µM (inactive)
15 | CC(C)(C)c1cc(NCCCn2ccnc2)n2ncc(-c3ccccc3)c2n1 | > 26 µM (inactive)
16 | Cc1ccccc1NC1=C/C(=N\S(=O)(=O)c2cccs2)c2ccccc2C1=O | > 26 µM (inactive)
17 | Cc1ccc(NNC(=O)c2ccno2)cc1Cl | > 26 µM (inactive)
18 | O=C(c1cccnc1)N(c1cc2sc(=O)oc2c2ccccc12)S(=O)(=O)c1ccccc1 | > 26 µM (inactive)
19 | O=C(NCc1ccccc1)C1=C[C@H](c2csc3ccccc23)C[C@H](OCCCCO)O1 | > 26 µM (inactive)
20 | Oc1c(CN2CCN(c3ccccc3)CC2)cc(Br)c2cccnc12 | > 26 µM (inactive)
21 | Cc1cc(C)c2c(N)c3cccc(C)c3nc2n1 | 4.47 µM
22 | Cc1[nH]n(C2=NCCS2)c(=O)c1N=Nc1cccc(C(F)(F)F)c1 | > 26 µM (inactive)
23 | FC(F)(F)c1cnc(NNC(=S)Nc2ccc(Cl)cc2)c(Cl)c1 | > 26 µM (inactive)
24 | CC(=O)C1=C(c2ccc(Br)cc2)C(=O)c2ccccc2C1=O | > 26 µM (inactive)
25 | Cc1ccccc1OCc1n(CC(=O)OC2CC(C)CCC2C(C)C)c2ccccc2[n+]1C (configuration not stated) | > 26 µM (inactive)

Row | Structure (SMILES) | AC50
26 | COc1cc(-c2nc3ccc(C)cn3c2NCc2ccccc2)ccc1SC1CCCCC1 | > 26 µM (inactive)
27 | Cc1ccc(C(C)C)c(OCc2nn(CC(=O)c3ccc(Cl)cc3)c3[n+]2CCCCC3)c1 | > 26 µM (inactive)
28 | Cc1ccc(-n2cccc2C(=S)N=P(N(C)C)(N(C)C)N(C)C)cc1 | > 26 µM (inactive)
29 | O=[N+]([O-])c1ccc(O)c(/C=N/Nc2nc3ccccc3[nH]2)c1 | > 26 µM (inactive)
30 | COc1ccc2c(c1OC)C(=O)OC2Nc1nc(-c2ccccc2)cs1 (configuration not stated) | 16.1 µM
31 | COc1ccc(OC)c(NC(=O)CSc2ncnc3c2cnn3-c2ccccc2Cl)c1 | > 26 µM (inactive)
32 | O=[N+]([O-])c1cccc(/C=N/n2cnnc2)c1 | > 26 µM (inactive)
33 | O=[N+]([O-])c1ccc(-c2nc3ccc([N+](=O)[O-])cc3[nH]2)cc1 | > 26 µM (inactive)
34 | C/C(=N\NC(=O)c1ccc(C)cc1)c1c(C)[nH]n(-c2ccccc2)c1=O | > 26 µM (inactive)
35 | Cc1ccccc1NC(=S)Nc1cccc2cnccc12 | > 26 µM (inactive)
36 | O=C(NCc1ccccn1)c1cc(-c2ccc(Cl)cc2)oc1C(F)(F)F | > 26 µM (inactive)
37 | Cn1nc(-c2ccc(Cl)cc2)nc2c(=O)n(C)c(=O)nc1-2 | > 26 µM (inactive)
38 | O=C(N/N=C\c1ccc([N+](=O)[O-])s1)c1cncc(Br)c1 | > 26 µM (inactive)
39 | CC(=O)NC(c1ccco1)c1cc(F)c2cccnc2c1O (configuration not stated) | > 26 µM (inactive)
40 | CCOc1cccc(/C=N/NC(=O)c2cc(C3CC3)[nH]n2)c1O | > 26 µM (inactive)
41 | Oc1ccc(COCc2ccccc2)c2cccnc12 | > 26 µM (inactive)
42 | CCCCn1c(NS(=O)(=O)c2ccccc2)c(S(=O)(=O)c2ccc(C)cc2)c2nc3ccccc3nc21 | > 12 µM (inactive)
43 | O=[N+]([O-])c1ccc(N2CCN(C(=S)NCc3ccc(Cl)cc3)CC2)cc1 | > 26 µM (inactive)
44 | CN(C)C1=NC[C@H](Cc2ccccc2)N1CCCC1CCCCC1 | > 26 µM (inactive)
45 | COc1ccc(N2CC(C(=O)N3CCN(c4ccccc4F)CC3)CC2=O)cc1 (configuration not stated) | > 26 µM (inactive)
46 | Cc1[nH]nc2nc(SCC(=O)NCCC3=CCCCC3)n(-c3ccc(Br)cc3)c(=N)c12 | > 26 µM (inactive)
47 | COc1ccc(NC(=O)c2c(Nc3ccccc3)sc(C(=O)c3ccc(F)cc3)c2N)cc1 | > 26 µM (inactive)
48 | Cc1nc(NC(=O)C23CC4CC(CC(C4)C2)C3)sc1Cc1ccc2c(c1)OCO2 | > 26 µM (inactive)
49 | CCCCC(=O)NC(c1ccc(N(CC)CC)cc1)c1ccc2cccnc2c1O (configuration not stated) | > 26 µM (inactive)
50 | COc1ccc(O)c(/C=N/NC(=S)Nc2cccnc2)c1 | > 26 µM (inactive)

Row | Structure (SMILES) | AC50
51 | COC(=O)C1=C(c2ccc(OCc3ccccc3)cc2)C[C@@H]2CC[C@H]1N2C(=O)NC1CCN(Cc2ccccc2)CC1 | > 26 µM (inactive)
52 | CCN(CC)C(=O)c1cc([N+](=O)[O-])cc2c1-c1ccc([N+](=O)[O-])cc1C2=C(C#N)C#N | > 26 µM (inactive)
53 | CCOc1cc(N2CCOCC2)c(OCC)cc1NC(=O)COc1cccc2cccnc12 | > 26 µM (inactive)
54 | COc1cnc(-c2ccccn2)nc1Oc1ccc(Cl)c2ccccc12 | > 26 µM (inactive)
55 | COC(=O)C1=C(C)N(Cc2ccccc2)C(=NCc2cccc(C(F)(F)F)c2)N[C@H]1c1cccc(F)c1 | > 26 µM (inactive)
56 | C=CC[C@@H](CC(=O)N(CCO)Cc1ccccc1)C(=O)N[C@H](COC(=O)[C@@H](CC=C)CC(=O)OC(C)(C)C)c1ccccc1 | > 26 µM (inactive)
57 | CCCOc1ccc(/C=N/NC(=S)Nc2ccccc2[N+](=O)[O-])c(O)c1 | > 26 µM (inactive)
58 | COc1ccccc1CNCC(O)Cn1c2ccccc2c2ccccc21 (configuration not stated) | > 26 µM (inactive)
59 | C/C(=N\NC(=O)c1cc(-c2cccnc2)nc2ccccc12)c1ccc(O)cc1O | > 26 µM (inactive)
60 | COc1ccc(/C=C/C(=O)c2ccc([N+](=O)[O-])o2)cc1OC | > 26 µM (inactive)
61 | COc1ccc(Sc2nc(-c3ccccn3)ncc2OC)cc1 | > 26 µM (inactive)
62 | CCN(CC)CCOc1ccc2c(c1)C(=NO)c1cc(OCCN(CC)CC)ccc1-2 | 6.61 µM
63 | C[N+]1=C(/C=C/Nc2ccccc2Cl)C(C)(C)c2ccccc21 | > 26 µM (inactive)
64 | NC(=O)c1ccccc1OC1CCC1 | > 26 µM (inactive)
65 | C/C(=N\N1C(=O)c2ccccc2NC1c1ccco1)c1ccccc1O (configuration not stated) | > 26 µM (inactive)
66 | C/C(=N\Nc1nc(C)cc(-c2ccccc2)n1)c1ccc(F)cc1 | > 26 µM (inactive)
67 | COc1cc(CSc2nnnn2-c2ccc(C)cc2)cc(OC)c1OC | > 26 µM (inactive)
68 | CN(C)CCCNc1c2ccccc2nc2ccccc12 | > 26 µM (inactive)
69 | COC(=O)c1ccc(NC(=O)c2cccnc2)cc1 | > 26 µM (inactive)
70 | CCCOc1ccc(Cc2c(Cl)nc(SC)nc2NC)cc1 | > 26 µM (inactive)
71 | Cn1nccc1C(=O)N/N=C/c1c(O)ccc2ccccc12 | > 26 µM (inactive)
72 | CC1Cc2cc(S(=O)(=O)N3CCC(C(=O)N4CCN(c5ccccc5F)CC4)CC3)ccc2N1C(=O)C1CC1 (configuration not stated) | > 26 µM (inactive)
73 | Cc1ccc(/C=N/NC(=O)c2c(-c3ccccc3)noc2C)c(O)c1 | > 26 µM (inactive)
74 | CC1=NNC(=O)/C1=C\c1cn(-c2ccccc2)nc1-c1ccc(Cl)cc1 | > 26 µM (inactive)
75 | Cc1ccc(S(=O)(=O)c2ccc([N+](=O)[O-])cn2)cc1 | > 26 µM (inactive)

Row | Structure (SMILES) | AC50
76 | CCCCCn1c(=O)c(C(=O)NCc2ccccc2Cl)c(O)c2ccccc21 | > 26 µM (inactive)
77 | O=C(Nc1ccc(OCC(F)(F)C(F)F)c(C(F)(F)F)c1)c1ccccc1O | > 26 µM (inactive)
78 | O=C(NNC(=S)Nc1ccc(Cl)c(Cl)c1)c1ccccn1 | > 26 µM (inactive)
79 | CCOC(=O)CSc1nc2c(c(=O)[nH]1)C(C)(CC)Cc1ccccc1-2 (configuration not stated) | > 26 µM (inactive)
80 | CCCCC(=O)NC(c1ccccc1OC)c1ccc2cccnc2c1O (configuration not stated) | > 26 µM (inactive)
81 | Cc1cc(C(=O)N/N=C/c2cc(Br)cc(Br)c2OC(=O)c2cccc(F)c2)n[nH]1 | > 26 µM (inactive)
82 | Clc1ccc(C(Cn2ccnc2)OCc2csc3c(Cl)cccc23)c(Cl)c1 (configuration not stated) | > 26 µM (inactive)
83 | Cc1ccc(NC(=O)c2cc(S(=O)(=O)NCCC3=CCCCC3)ccc2F)cc1F | > 26 µM (inactive)
84 | CCCCC[n+]1ccn(C2=C([O-])c3ccccc3C(=O)/C2=N\S(=O)(=O)c2ccccc2)c1 | > 26 µM (inactive)
85 | O=C(CSC1=NCCS1)Nc1ccnc2ccccc12 | > 26 µM (inactive)
86 | Cc1cc(C(=O)c2ccc3ccccc3c2)c(C)o1 | > 26 µM (inactive)
87 | O=C(Nc1ccc(Cl)cc1)Nc1ccc(Cl)c(Cl)c1 | > 26 µM (inactive)
88 | Cc1ccc(S(=O)(=O)NCc2ccncc2)cc1C | > 26 µM (inactive)
89 | CCOC(=O)C(=Cc1ccc(Br)cc1)C(=O)OCC | > 26 µM (inactive)
90 | COc1ccc(C(=O)c2c(C(F)(F)F)oc3c2C(=O)c2ccccc2C3=O)cc1 | > 26 µM (inactive)
91 | COc1ccccc1N1CCN(Cc2ccc(O)c3ncccc23)CC1 | > 26 µM (inactive)
92 | COc1ccccc1N(CC(=O)N/N=C/c1c(O)ccc2ccccc12)S(C)(=O)=O | > 26 µM (inactive)
93 | CC1Cc2ccccc2N1C(=O)CSc1nc2ccccc2o1 (configuration not stated) | > 26 µM (inactive)
94 | Cc1oc2c(c1C(=O)N1CCOCC1)C(=O)c1ccccc1C2=O | > 26 µM (inactive)
95 | CCN1c2ccccc2NC2N=C(OC)C(c3ccccc3)C21 (configuration not stated) | > 26 µM (inactive)
96 | CCN1c2ccccc2N(C)C1(C)c1ccccc1 (configuration not stated) | > 26 µM (inactive)
97 | O=C(Nc1cccc(NC(=O)c2ccccc2Cl)c1)c1ccc([N+](=O)[O-])o1 | > 26 µM (inactive)
